Where two headings read alike, the source gives them in different places. A value given as a limit tells only on which side of the number the result lay.

The test system of assay [1] is T-cell. Nature of the assay: IL-2 secretion from T-cells stimulated with anti-CD3 antibody alone (Biological Example 2). The format is cell-based, human. The note with it: T-cell, fold change over baseline, primary human total T-cells, read-out: IL-2 secretion Anti-CD3 stimulation; for fold induction at 1 µM: 1 μM Cbl-b inhibitor; for fold induction at 8 µM: 8 μM Cbl-b inhibitor.

Assay [2] concerns T-cell. Briefly: CD25 cell surface staining on T-cells stimulated with anti-CD3 antibody alone (Biological Example 2). The format is cell-based, human. Particulars: T-cell, fold change over baseline, primary human total T-cells, read-out: CD25 staining Anti-CD3 stimulation; for fold induction at 1 µM: 1 μM Cbl-b inhibitor; for fold induction at 8 µM: 8 μM Cbl-b inhibitor.
For the next assay, the system named is primary human NK cells. Briefly: NK cell activation assessed by cytokine secretion (coculture with K562 NucRed target cells). It is filed as cell-based. The note with it: K562, NK cells cocultured with K562 NucRed, 1:1 E/T; for fold induction at 0.625 µM: 0.625 μM compound; for fold induction at 2.5 µM: 2.5 μM compound; for fold induction at 10 µM: 10 μM compound. Put shortly: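 Primary NK cells from donor PBMC, IL-2 (60 ng/mL) overnight, then Cbl-b inhibitor (e.g. 10, 1 or 0.1 μM; DMSO <0.1%) for 1 h before 6 h coculture with K562 NucRed at effector:target ratios such as 5:1, 1:1 or 1:5. Supernatant IFNγ, TNFα, MIP1β measured by ELISA or Luminex; fold change over inhibitor-free baseline, >2.0-fold positive.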

Where [3] appears, read: read-out: IFNγ secretion, fold change over baseline.
[4] abbreviates: read-out: TNFα secretion, fold change over baseline.

For the compound `C[C@H](Cc1nncn1C)c1ccnc(NC(=O)c2cccc(C(F)(F)F)n2)c1` [Compound 302, (R)-N-(4-(1-(4-methyl-4H-1,2,4-triazol-3-yl)propan-2-yl)pyridin-2-yl)-6-(trifluoromethyl)picolinamide], in the assay with T-cell [1], the fold induction at 1 µM was less than 0.05 and the fold induction at 8 µM was 0.051 to 0.1. Further, in the assay on T-cell [2], the fold induction at 1 µM is less than 0.6 and the fold induction at 8 µM was 0.801 to 1. In the assay on primary human NK cells (setting [3]), the fold induction at 0.625 µM is less than 1, the fold induction at 2.5 µM lay within 1.01 to 2 and the fold induction at 10 µM was 2.01 to 5. Further, in the assay on primary human NK cells (setting [4]), the fold induction at 0.625 µM lay within 1.01 to 2, the fold induction at 2.5 µM was 1.01 to 2 and the fold induction at 10 µM was in the range of 1.01 to 2.

For the compound `C[C@H](Cc1nncn1C)c1cccc(NC(=O)c2nc(C(F)(F)F)c[nH]2)c1` [Compound 326, (R)-N-(3-(1-(4-methyl-4H-1,2,4-triazol-3-yl)propan-2-yl)phenyl)-4-(trifluoromethyl)-1H-imidazole-2-carboxamide], in the assay on T-cell [1], the fold induction at 1 µM lay in the range of 0.051 to 0.1 and the fold induction at 8 µM is more than 0.201. Besides, in the assay on T-cell [2], the fold induction at 1 µM is 0.801 to 1 and the fold induction at 8 µM is more than 1. In the assay with primary human NK cells (setting [3]), the fold induction at 0.625 µM fell in the range of 1.01 to 2, the fold induction at 2.5 µM was 2.01 to 5 and the fold induction at 10 µM was in the range of 2.01 to 5. Moreover, in the assay on primary human NK cells (setting [4]), the fold induction at 0.625 µM is 1.01 to 2, the fold induction at 2.5 µM lay in the range of 2.01 to 5 and the fold induction at 10 µM is 2.01 to 5.

The record behind these values is patent publication US20220324835A1 (Nurix Therapeutics, Inc., priority 2018, published 2022).
